Test results taken from ChEMBL document CHEMBL1201862, “PubChem BioAssay data set” (2004).
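In this assay, cells in 96-well plates receive the compound at five concentrations for 48 hours. Endpoints are linearly interpolated between the surrounding concentrations. The concentration for 50% growth inhibition is given as GI50.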 Activity calls are given as the source filed them. Rule as the data show it: active = GI50 up to about 1.1 µM and inactive = higher.

How the values were obtained:
Experiment in all cases: NCI-60 cell line screen, 48 h
SNB-75 = tested on: SNB-75
RPMI-8226 = tested on: RPMI-8226
BT-549 = tested on: BT-549
OVCAR-3 = tested on: OVCAR-3
HL-60 = tested on: HL-60
CAKI-1 = tested on: CAKI-1
RXF 393 = tested on: RXF 393
UACC-257 = tested on: UACC-257
SN12C = tested on: SN12C
IGROV-1 = tested on: IGROV-1
OVCAR-8 = tested on: OVCAR-8
SK-MEL-28 = tested on: SK-MEL-28
MDA-N = tested on: MDA-N
ACHN = tested on: ACHN
T47D = tested on: T47D
EKVX = tested on: EKVX
HCT-15 = tested on: HCT-15
K562 = tested on: K562
MOLT-4 = tested on: MOLT-4

| Structure (SMILES) | GI50 (SNB-75) | GI50 (RPMI-8226) | GI50 (BT-549) | GI50 (OVCAR-3) | GI50 (HL-60) | GI50 (CAKI-1) | GI50 (RXF 393) | GI50 (UACC-257) | GI50 (SN12C) | GI50 (IGROV-1) | GI50 (OVCAR-8) | GI50 (SK-MEL-28) | GI50 (MDA-N) | GI50 (ACHN) | GI50 (T47D) | GI50 (EKVX) | GI50 (HCT-15) | GI50 (K562) | GI50 (MOLT-4) |
| --- | --- | --- | --- | --- | --- | --- | --- | --- | --- | --- | --- | --- | --- | --- | --- | --- | --- | --- | --- |
| COC(=O)C(=O)C(C(=O)C(=O)Nc1ccc(C)cc1)c1nc2ccc(C(=O)c3ccccc3)cc2nc1O (stereo unspecified) | 22.3 µM (inactive) | > 100 µM (inactive) | > 100 µM (inactive) | > 100 µM (inactive) | 30.1 µM (inactive) | 39.4 µM (inactive) | 55 µM (inactive) | > 100 µM (inactive) | > 100 µM (inactive) | > 100 µM (inactive) | 42.2 µM (inactive) | > 100 µM (inactive) | 43.4 µM (inactive) | > 100 µM (inactive) | 79.4 µM (inactive) | > 100 µM (inactive) | 52.2 µM | 42.2 µM (inactive) |  |
| Clc1ccc(Cc2nc3cc(Cl)c(Cl)cc3n2CC2CCCN3CCCCC23)cc1 (stereo unspecified) | 7.76 µM (inactive) | 24.5 µM (inactive) | 13.1 µM (inactive) | 11 µM (inactive) | 5.55 µM (inactive) | 14.7 µM (inactive) | 13.8 µM (inactive) | 3.81 µM (inactive) | 12.3 µM (inactive) | 8.87 µM (inactive) | 12.8 µM (inactive) | 6.93 µM (inactive) | 11.7 µM (inactive) | 10.1 µM (inactive) | 18.1 µM (inactive) | 10.3 µM (inactive) | 10.7 µM | 7.41 µM (inactive) | 4.22 µM (inactive) |
| Cn1c(NNc2ccccc2)cc(=O)[nH]c1=O | 81.7 µM (inactive) | 35.3 µM (inactive) | > 100 µM (inactive) | 23.2 µM (inactive) | 32.7 µM (inactive) | 29.9 µM (inactive) | 61.8 µM (inactive) | 95.7 µM (inactive) | > 100 µM (inactive) | 48.2 µM (inactive) | 29.8 µM (inactive) | 37.8 µM (inactive) | 20.5 µM (inactive) | 4.25 µM (inactive) | 30.9 µM (inactive) | > 100 µM (inactive) | 16.3 µM | 36.7 µM (inactive) | 39.3 µM (inactive) |
| O=C(O)CSC1=NCCN1 | > 100 µM (inactive) | > 100 µM (inactive) | > 100 µM (inactive) | > 100 µM (inactive) |  | > 100 µM (inactive) | > 100 µM (inactive) |  | > 100 µM (inactive) | > 100 µM (inactive) | > 100 µM (inactive) | > 100 µM (inactive) | > 100 µM (inactive) | > 100 µM (inactive) | > 100 µM (inactive) | > 100 µM (inactive) | > 100 µM | > 100 µM (inactive) | > 100 µM (inactive) |
| C(=N\c1ccc(-c2nc3ccccc3[nH]2)cc1)/c1cccs1 | 81.1 µM (inactive) | 52 µM (inactive) | 27.4 µM (inactive) | 49.7 µM (inactive) | 22 µM (inactive) | > 100 µM (inactive) | 56.6 µM (inactive) | > 100 µM (inactive) | > 100 µM (inactive) | 19.8 µM (inactive) | 49.9 µM (inactive) | > 100 µM (inactive) | > 100 µM (inactive) | > 100 µM (inactive) | 31.9 µM (inactive) | > 100 µM (inactive) | 84.9 µM | 81.7 µM (inactive) | 29.9 µM (inactive) |
| CCOC(=O)c1c(-c2ccc(OC)cc2)c(C#N)c(=S)n(C2OC(CO)C(O)C(O)C2O)c1-c1ccccc1 (stereo unspecified) | 78.7 µM (inactive) | 46.9 µM (inactive) | 37.4 µM (inactive) | 24.6 µM (inactive) | 40.8 µM (inactive) | 50.7 µM (inactive) | 26.2 µM (inactive) | > 100 µM (inactive) | 42.7 µM (inactive) | 59.6 µM (inactive) |  | 50.4 µM (inactive) | 33.2 µM (inactive) | 54.7 µM (inactive) | 52.2 µM (inactive) |  | 56 µM | 34.4 µM (inactive) | 30.7 µM (inactive) |
| CNC(=O)c1nnn(Cc2ccccc2)c1S | > 100 µM (inactive) | > 100 µM (inactive) | > 100 µM (inactive) | > 100 µM (inactive) |  | > 100 µM (inactive) | > 100 µM (inactive) | > 100 µM (inactive) | > 100 µM (inactive) | > 100 µM (inactive) | > 100 µM (inactive) | > 100 µM (inactive) | > 100 µM (inactive) | > 100 µM (inactive) | > 100 µM (inactive) | > 100 µM (inactive) | > 100 µM | > 100 µM (inactive) | > 100 µM (inactive) |
| CCOC(=O)/C(C(N)=O)=C(O)/C(O)=C(\Br)C(=O)c1ccccc1 | 17.3 µM (inactive) | 9.25 µM (inactive) | 18.6 µM (inactive) | 20.7 µM (inactive) | 0.0622 µM (active) | 11.1 µM (inactive) | 15.6 µM (inactive) | 17.9 µM (inactive) | 18.5 µM (inactive) | 15.9 µM (inactive) | 19.6 µM (inactive) | 17.9 µM (inactive) | 17.5 µM (inactive) | 19.1 µM (inactive) | 23.1 µM (inactive) | 23.9 µM (inactive) | 18.2 µM | 11.8 µM (inactive) | 2.99 µM (inactive) |
| NS(=O)(=O)c1ccc(/N=N/c2cc3ccccc3c(C(=O)O)c2O)cc1 | > 60.7 µM (inactive) | > 100 µM (inactive) | 99.1 µM (inactive) | > 47.8 µM (inactive) | > 100 µM (inactive) | > 100 µM (inactive) | > 46.2 µM (inactive) | > 58.2 µM (inactive) | > 78.3 µM (inactive) | 41.6 µM (inactive) | > 56.8 µM (inactive) | > 60.1 µM (inactive) | > 100 µM (inactive) | 15.7 µM (inactive) | > 54.1 µM (inactive) | > 100 µM (inactive) | > 49.7 µM | > 100 µM (inactive) | > 57 µM (inactive) |
| Cc1ccc2occ/c(=N\Nc3ccccc3)c2c1 | 24.3 µM (inactive) | 25.1 µM (inactive) | > 100 µM (inactive) | 60.1 µM (inactive) | > 100 µM (inactive) | 54 µM (inactive) | 21.8 µM (inactive) | > 100 µM (inactive) | > 100 µM (inactive) | 7.83 µM (inactive) | 72.9 µM (inactive) | 62.2 µM (inactive) | 65.9 µM (inactive) | > 100 µM (inactive) | 1.33 µM (inactive) | 18.6 µM (inactive) | 39.9 µM | 25.2 µM (inactive) |  |
| CC(C)=CCc1cc2c(cc1O)OC[C@H]1c3cc4c(cc3O[C@@H]21)OCO4 | 78.7 µM (inactive) |  | 23.4 µM (inactive) | 37.2 µM (inactive) | 23.8 µM (inactive) | 25.1 µM (inactive) | 21.4 µM (inactive) | 45.3 µM (inactive) | > 10 µM (inactive) | > 100 µM (inactive) | > 100 µM (inactive) | 83.4 µM (inactive) | 20.6 µM (inactive) | 42.4 µM (inactive) | 34.4 µM (inactive) | 22.2 µM (inactive) | 35.8 µM | 36.7 µM (inactive) | 22.1 µM (inactive) |
| N/C(=N/O)c1cn(C2OC(CO)C(O)C2O)c2ncnc(NO)c12 (stereo unspecified) | 0.222 µM (active) | 0.146 µM (active) | 0.426 µM (active) | 0.255 µM (active) | 0.166 µM (active) |  | 0.356 µM (active) | 0.224 µM (active) | 0.0593 µM (active) | 0.451 µM (active) | 0.242 µM (active) | 0.476 µM (active) | 0.0407 µM (active) | 0.0189 µM (active) | 0.037 µM (active) | 0.422 µM (active) | 0.184 µM | 0.184 µM (active) | 0.0871 µM (active) |
| Cc1ccnc(NC(=S)Nc2ccccc2Cl)c1 | 13 µM (inactive) | > 100 µM (inactive) | > 100 µM (inactive) | > 100 µM (inactive) | > 100 µM (inactive) | > 100 µM (inactive) | > 100 µM (inactive) | > 100 µM (inactive) | > 100 µM (inactive) | 61.2 µM (inactive) | 77.8 µM (inactive) | > 100 µM (inactive) | > 100 µM (inactive) |  | > 100 µM (inactive) | 40.1 µM (inactive) | > 100 µM | > 100 µM (inactive) | > 100 µM (inactive) |
| CCOc1cc(C2SCC(=O)N2c2nc3cc4sc(N5C(=O)CSC5c5ccc(O)c(OCC)c5)nc4cc3s2)ccc1O (stereo unspecified) | > 100 µM (inactive) | 32.5 µM (inactive) | 9.59 µM (inactive) | > 100 µM (inactive) | 61.2 µM (inactive) | > 50.7 µM (inactive) | > 100 µM (inactive) |  | > 31.5 µM (inactive) | 15.9 µM (inactive) | > 68.7 µM (inactive) | > 100 µM (inactive) | 30.5 µM (inactive) | > 48.4 µM (inactive) | 40.2 µM (inactive) | 67.3 µM (inactive) | 8.47 µM | > 64.6 µM (inactive) | 4.61 µM (inactive) |
| N=S(c1ccccc1[N+](=O)[O-])c1ccccc1[N+](=O)[O-] | 7.94 µM (inactive) | 1.14 µM (inactive) | 1.62 µM (inactive) | 0.839 µM (active) | 0.933 µM (active) | 2.07 µM (inactive) | 2.69 µM (inactive) | 2.33 µM (inactive) | 1.11 µM (active) | 1.98 µM (inactive) | 2.14 µM (inactive) | 4.28 µM (inactive) | 1.36 µM (inactive) | 1.22 µM (inactive) | 0.311 µM (active) | 5.04 µM (inactive) | 0.912 µM |  | 1.8 µM (inactive) |
| NC(=O)C(c1ccccc1)N1OC2C(=O)N(c3cccc4ccccc34)C(=O)C2C1c1c2ccccc2c(Cl)c2ccccc12 (stereo unspecified) | 8.97 µM (inactive) |  | 9.42 µM (inactive) | 7.91 µM (inactive) | 2.44 µM (inactive) | 5.28 µM (inactive) | 6.81 µM (inactive) | 5.18 µM (inactive) | 8.47 µM (inactive) | 11.7 µM (inactive) | 9.29 µM (inactive) | 12.8 µM (inactive) | 2.38 µM (inactive) | 8.91 µM (inactive) | 8.93 µM (inactive) | 11.6 µM (inactive) | 4.21 µM | 8.15 µM (inactive) | 1.44 µM (inactive) |
